Values after ≈ are worked out from the molar mass of the structure shown. Where two headings read alike, the source gives them in different places.
Columns and labels:
[1] = tested on: aspergillus fumigatus (ATCC 13073 [strain: NIH 5233]); assay: In vivo anti-fungal activity, prophylactic and therapeutic treatment of infected immunocompromised neutropenic mice; parameters: species or system A/J mice; conditions: prophylactic treatment (days 0, 1, 2 and 3); 0.4 mg/mL
[2] = tested on: Aspergillus fumigatus (NCPF2010); assay: Resazurin-microtitre assay of planktonic fungus growth; type: cell-based; conditions: Aspergillus fumigatus
Experimental: This assay was conducted using a modified, published method (Monteiro et al., 2012). Spores of aspergillus fumigatus (NCPF2010, Public Health England, Wiltshire) were cultured in Sabouraud dextrose agar for 3 days. A stock spore suspension was prepared from a Sabouraud dextrose agar culture by washing with PBS-tween (10 mL; PBS containing 0.05% Tween-20, 100 U/mL Penicillin and 100 U/mL Streptomycin). The spore count was assessed using a Neubauer haemocytometer and, using PBS adjusted to 10^6 spores/mL. A working suspension of spores (10^4 spores/mL) was prepared in filter sterilised MOPS RPMI-1640 (50 mL; RPMI-1640 containing 2 mM L-glutamine, 2% glucose and 0.165 M MOPS, buffered to pH 7 with NaOH). Resazurin sodium salt (100 µL of 1% solution; Sigma-Aldrich, Dorset, UK) was added to the spore suspension and mixed well. The spore suspension-resazurin mixture (100 µL/well) was added to 384-well plates (Catalogue number 353962, BD Falcon, Oxford, UK).
Simultaneously, test compounds (0.5 µL DMSO solution) were added to 100 µL of the spore-resazurin mixture in quadruplicate to provide a final DMSO solution of 0.5% using an Integra VIAFLO 96 (Intergra, Zizers, Switzerland). For non-spore control wells, MOPS-RPMI-resazurin solution (100 µL) was added instead of the spore-resazurin mixture. The plate was covered with a Breathe Easier membrane (Catalogue No Z763624, Sigma-Aldrich, Dorset, UK), and incubated (35° C., 5% CO2) until fluorescence in the inoculated wells was double that of the control wells (around 24 hr). The fluorescence of each well (545 nm (excitation) / 590 nm (emission), gain 800, focal height 5.5 mm) was determined using a multi-scanner (Clariostar: BMG, Buckinghamshire, UK). The percentage inhibition for each well was calculated and the MIC50, MIC75 and MIC90 values were calculated from the concentration-response curve generated for each test compound.

[3] = tested on: aspergillus fumigatus infection of BEAS2B cells; assay: Aspergillus fumigatus infection of bronchial epithelial cells (GM in supernatant); type: cell-based; conditions: Aspergillus fumigatus, read-out: MIC50 Infection of BEAS2B cells
Procedure, shortened: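 BEAS2B cells in 10% FBS RPMI-1640 pre-treated with compound (0.5% DMSO final) for 1 hr at 35 °C, then infected with A. fumigatus conidia (0.5×10^5/ml suspension) for 24 hr at 35 °C. Galactomannan in 1:20-diluted supernatant measured by Platelia GM-EIA; IC50 from percent-inhibition concentration-response curves.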

[4] = tested on: Aspergillus fumigatus NCPF7100; assay: Broth microdilution assay (modified EUCAST); type: cell-based; conditions: Aspergillus fumigatus, NCPF7100, read-out: MIC75 against Aspergillus fumigatus isolate NCPF7100
[5] = tested on: Aspergillus fumigatus L98H (TR34/L98H); assay: Broth microdilution assay (modified EUCAST); type: cell-based; conditions: Aspergillus fumigatus, read-out: MIC75 against Aspergillus fumigatus isolate L98H
Procedure, shortened: (§1)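 Spores from 3-day Sabouraud cultures (working suspension 2 × 10^5 spores/mL) were added to an equal volume of RPMI-1640 (2 mM L-glutamine, 0.5% BSA, 2% glucose, 0.165 M MOPS, pH 7) containing compound, in quadruplicate. After 48 hr at 35 °C, OD530 gave percent inhibition. MIC50, MIC75 and MIC90 came from concentration-response curves.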

[6] = tested on: Aspergillus fumigatus NCPF7099; assay: Broth microdilution assay (modified EUCAST); type: cell-based; conditions: Aspergillus fumigatus, NCPF7099, n = 3, read-out: MIC75 against Aspergillus fumigatus isolate NCPF7099
Procedure, shortened: as §1

[7] = tested on: Aspergillus fumigatus NCPF2010; assay: Broth microdilution assay (modified EUCAST); type: cell-based; conditions: Aspergillus fumigatus
Procedure, shortened: as §1

[8] = Cell viability: resazurin assay; type: cell-based, human; conditions: human, BEAS2B cells; n = 3-5
Procedure, shortened: (§2)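 BEAS2B cells in RPMI-LHC8, exposed to compound for 1 day at 37 °C (0.5% DMSO final), then resazurin added for a further 4 h. Fluorescence (ex 545/em 590 nm) gives % viability loss vs 0.5% DMSO vehicle; CC50 from concentration-response curve.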

[9] = tested on: Aspergillus flavus ATCC204304; assay: Fungus panel screening, CLSI broth microdilution; type: cell-based
Experimental: (§3) Fungus panel screening was conducted by Eurofins Panlabs Inc. The MIC and MIC50 values of the test articles were determined following the guidelines of the Clinical and Laboratory Standards Institute, broth microdilution methods for yeast (CLSI M27-A2), (CLSI, 2002) and for filamentous fungi (CLSI M38-A), (CLSI, 2008).

[10] = tested on: Chaectomium globosum ATCC44699; assay: Fungus panel screening, CLSI broth microdilution; type: cell-based
Experimental: as §3

[11] = tested on: Cryptococcus neoformans ATCC24067; assay: Fungus panel screening, CLSI broth microdilution; type: cell-based
Experimental: as §3

BEAS2B cells = assay: Cell viability: resazurin assay; type: cell-based, human; conditions: n = 3-5
Procedure, shortened: as §2

[12] = 50% inhibition by visual inspection (CLSI)
[13] = 100% inhibition by visual inspection (CLSI), read-out: MIC100

| SMILES | % Inhibition versus Infected Controls, GM in BALF [1] | % Inhibition versus Infected Controls, GM in serum [1] | % Inhibition versus Infected Controls, Lung Fungal Load [1] | MIC50 ([2]; NCPF2010, read-out: MIC50 Planktonic fungal growth) | MIC ([2]; NCPF2010, read-out: MIC75 Planktonic fungal growth) | MIC50 [3] | MIC [4] | MIC [5] | MIC [6] | MIC ([7]; NCPF2010, read-out: MIC75 against Aspergillus fumigatus isolate NCPF2010) | CC50 at 1 day [8] | MIC50 [9, 12] | MIC [9, 13] | MIC50 [10, 12] | MIC [10, 13] | MIC50 [11, 12] | MIC [11, 13] | MIC ([7]; NCPF2010, broth microdilution assay, n = 3, read-out: MIC75 against Aspergillus fumigatus isolate NCPF2010) | CC50 (BEAS2B cells) |
| --- | --- | --- | --- | --- | --- | --- | --- | --- | --- | --- | --- | --- | --- | --- | --- | --- | --- | --- | --- |
| Cc1cc(N2CCN(c3ccc(C(=O)Nc4ccc(F)cc4F)cc3)CC2)ccc1OC[C@@H]1CO[C@@](Cn2cncn2)(c2ccc(F)cc2F)C1 [Example 2, 4-(4-(4-(((3R,5R)-5-((1H-1,2,4-Triazol-1-yl)Methyl)-5-(2,4-Difluorophenyl) Tetrahydrofuran-3-yl)Methoxy)-3-Methylphenyl)Piperazin-1-yl)-N-(2,4-Difluorophenyl) Benzamide] | 43% | 27% | 25% | 0.00074 µM (≈ 0.519 ng/mL) | 0.00306 µM (≈ 2.14 ng/mL) | 0.00142 µM (≈ 0.995 ng/mL) | 0.0213 µM (≈ 14.9 ng/mL) | 0.0816 µM (≈ 57.2 ng/mL) | 0.0283 µM (≈ 19.8 ng/mL) | 0.007 µM (≈ 4.91 ng/mL) | > 14.3 µM | – | – | – | – | – | – | – | – |
| C[C@@H](c1ncncc1F)[C@](O)(Cn1cncn1)c1ccc(F)cc1F [Voriconazole] | – | – | – | – | – | – | – | – | – | – | – | 1 µg/mL (≈ 2.86 µM) | 2 µg/mL (≈ 5.73 µM) | 0.5 µg/mL (≈ 1.43 µM) | 1 µg/mL (≈ 2.86 µM) | 0.016 µg/mL (≈ 0.0458 µM) | 1 µg/mL (≈ 2.86 µM) | 0.496 µM (≈ 173 ng/mL) | > 28.6 µM |
